# Laboratory results: US4582821A, “Inhibition of cyclic nucleotide independent protein kinases” (E. I. Du Pont de Nemours and Company, priority 1983, dated 1986)
# Tests used:
# [1] = tested on: lymphoma cell line MOLT-4; assay: Tumor cell line growth inhibition, MOLT-4; assay type: cell-based
# Description: In this series of experiments, the tumor cell growth inhibitory capacity of various peptide halomethyl ketones was tested against lymphoma cell lines YAC-1 and MOLT-4, and against an erythroleukemia cell line, K-562. The lymphoma cell line YAC-1 is described by Kiessling, et al., Eur. J. Immunol. 5:112 (1975), and MOLT-4 is described by Minowada, et al., J. Natl. Cancer Inst. 49:891 (1972) and Nilsson, et al., Int. J. Cancer 15:321 (1975). The erythroleukemia cell line K-562 is described by Lozzio, et al., Leuk. Res. 3:363 (1979). In these experiments, cells were grown on standard media as 10 mL suspension cultures. Initial cell density was 10^5 cells/mL. At day 0, test compounds were introduced in ethanol; control cultures received an equal volume of ethanol. Cells were counted at the times indicated.
# A-431 cell EGF receptor = biological target: T1, A-431 cell EGF receptor (Homo sapiens, UniProt P00533); assay: Protein phosphorylation of A-431 cell membrane EGF receptors (intact membranes, EGF present); assay type: biochemical; details: 600 nmoles/mg protein, intact A-431 membranes
# T1 construct: intact A-431 cell membranes were employed, rather than solubilized extracts; endogenous in cells; host or cells: A-431 human epidermoid carcinoma cells (plasma membranes)
# Description: Protein phosphorylation assays were conducted substantially as described by Carpenter et al., J. Biol. Chem. 254:4884 (1979). Each assay mixture contained, in a final volume of 70 μL: 20 mM Hepes, pH 7.4, 0.01% bovine serum albumin (BSA), 15-150 μg protein in Triton extract, 100 ng EGF, 1 mM MnCl2 and 10-20 μM [γ-^32 P] ATP (2-4 μCi). Peptide halomethyl ketones were added as solutions in ethanol; an equivalent volume of ethanol was added to controls. Assay mixtures were incubated at about 23° for ten minutes, with or without added EGF. Mixtures were then held at 0° for ten minutes before initiation of phosphorylation by addition of 15 μM γ-^32 P) ATP (2 μCi). Reactions were terminated after 3 minutes at 0° by applying an aliquot of the assay mixture to a Whatman 3MM filter paper (2×2 cm), which was then suspended in ice-cold 10% trichloroacetic acid containing 10 mM pyrophosphate. This suspension was gently shaken for a period of 1 hour, during which the trichloroacetic acid/pyrophosphate mixture was changed three times. Finally, the filter papers were dried and radioactivity measured by scintillation counting.
# Assays were conducted substantially as described above, except intact A-431 cell membranes were employed, rather than solubilized extracts, and assay mixtures contained 1 mM ouabain. In these Examples, reactions were permitted to proceed for 6 minutes. This technique is substantially similar to that disclosed by Navarro et al., Biochemistry, 21:6138 (1982).
# T1 sequence (P00533 25-1210): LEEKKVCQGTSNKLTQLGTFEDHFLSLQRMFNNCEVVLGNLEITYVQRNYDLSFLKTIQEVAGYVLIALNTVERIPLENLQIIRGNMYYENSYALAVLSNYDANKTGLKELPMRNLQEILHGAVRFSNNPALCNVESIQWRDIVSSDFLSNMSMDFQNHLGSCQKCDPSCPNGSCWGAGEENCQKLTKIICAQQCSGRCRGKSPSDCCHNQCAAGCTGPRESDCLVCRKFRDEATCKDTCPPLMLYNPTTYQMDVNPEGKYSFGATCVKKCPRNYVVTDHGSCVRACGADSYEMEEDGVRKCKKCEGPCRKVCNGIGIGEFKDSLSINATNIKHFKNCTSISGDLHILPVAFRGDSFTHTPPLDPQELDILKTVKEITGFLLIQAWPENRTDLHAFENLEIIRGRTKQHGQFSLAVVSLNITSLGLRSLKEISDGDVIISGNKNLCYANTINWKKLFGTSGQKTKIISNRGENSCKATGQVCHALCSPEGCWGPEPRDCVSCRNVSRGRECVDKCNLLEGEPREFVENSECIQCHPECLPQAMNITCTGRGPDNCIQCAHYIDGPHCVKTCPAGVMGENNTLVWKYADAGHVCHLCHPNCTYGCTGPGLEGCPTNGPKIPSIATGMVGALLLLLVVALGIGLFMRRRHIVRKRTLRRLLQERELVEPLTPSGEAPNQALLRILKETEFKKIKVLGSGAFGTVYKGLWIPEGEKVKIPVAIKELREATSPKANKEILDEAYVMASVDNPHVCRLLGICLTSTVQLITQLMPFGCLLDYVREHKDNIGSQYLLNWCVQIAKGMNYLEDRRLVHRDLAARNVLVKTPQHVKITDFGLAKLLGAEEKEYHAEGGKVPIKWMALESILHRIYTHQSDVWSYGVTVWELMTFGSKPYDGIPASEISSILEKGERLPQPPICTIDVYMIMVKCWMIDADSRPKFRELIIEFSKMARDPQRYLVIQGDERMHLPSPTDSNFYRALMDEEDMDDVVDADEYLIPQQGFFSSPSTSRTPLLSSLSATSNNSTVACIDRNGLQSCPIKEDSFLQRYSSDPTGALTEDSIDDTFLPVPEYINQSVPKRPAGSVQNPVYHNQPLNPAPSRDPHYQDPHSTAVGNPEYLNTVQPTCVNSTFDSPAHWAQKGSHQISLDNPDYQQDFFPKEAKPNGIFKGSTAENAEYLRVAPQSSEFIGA
structure (smiles),measurement,setting,value
CC(C)CC(NC(=O)OC(C)(C)C)C(=O)CBr (stereo not shown) [Boc-LeuCH2 Br],% Growth Relative to Control Cultures,"[1]; 0.4 μg/mL, day 2",66%
same,% Growth Relative to Control Cultures,"[1]; 0.4 μg/mL, day 3",84%
same,% Growth Relative to Control Cultures,"[1]; 0.4 μg/mL, day 4",67%
same,% Growth Relative to Control Cultures,"[1]; 2.0 μg/mL, day 2",29%
same,% Growth Relative to Control Cultures,"[1]; 2.0 μg/mL, day 3",31%
same,% Growth Relative to Control Cultures,"[1]; 2.0 μg/mL, day 4",21%
same,% Growth Relative to Control Cultures,"[1]; 2.0 μg/mL, day 7",74%
same,% Growth Relative to Control Cultures,"[1]; 10. μg/mL, day 1",49%
same,% Growth Relative to Control Cultures,"[1]; 10. μg/mL, day 2",16%
same,% Growth Relative to Control Cultures,"[1]; 10. μg/mL, day 3",14%
same,% Growth Relative to Control Cultures,"[1]; 10. μg/mL, day 4",9%
same,% Growth Relative to Control Cultures,"[1]; 10. μg/mL, day 7",14%
same,% inhibition,A-431 cell EGF receptor,29%
